Laboratory results: patent US5374772A, “Substituted benzoic acids, inhibitors of phospholipases A2” (Hoffmann-LaRoche Inc., priority 1993, dated 1994)

Key:
[1] = system: croton oil-induced mouse ear edema; test: Croton Oil Mouse Ear Edema Test; format: in vivo, male CD-1 mice; details: 1 mg topical, coapplied with croton oil, ear punch weight at 6 hours
Procedure: The croton oil-induced mouse ear edema test, a model of irritant-induced contact dermatitis, has been used for evaluation of the PLA2 inhibitors by the topical route of administration. This test was carried out as described in the following references:
The major active ingredient in croton oil is the tumor promoter 12-O-tetradecanoylphorbol-13-acetate (TPA) and the topical application of TPA to mouse skin has been reported to cause an increase in epidermal PGE2 production as well as an increase in epidermal cell membrane PLA2 activity. Indomethacin, an inhibitor of prostaglandin synthesis, prevented the TPA-mediated increase in epidermal PGE2 levels as well as the TPA-mediated induction of epidermal cell ornithine decarboxylase. Furthermore, the application of PGE2 to mouse skin countered the inhibitory effect of indomethacin upon TPA-stimulated cellular proliferation.
Twenty five μl of a 1% croton oil solution [dissolved in a mixture of pyridine/water/diethyl ether at a ratio of 5/20/75 (croton oil vehicle)] are applied to the outer side of the right ear of 3-4 week old male CD-1 mice (8 animals per group). The test compounds are dissolved directly in the 1% croton oil solution at various concentrations and coapplied. Control animals receive 25 μl of croton oil vehicle on the right ear. Biopsy punches are removed at 6 hours from the fight ear of the animals using a 6 mm skin trephine (Roboz, Washington, D.C.) and the wet weight of the ear punches is determined. The weight of the biopsy punches is a measure of ear inflammation, primarily edema. The data are expressed as percent inhibition relative to control groups.
Statistical analysis of the mean edema values of the control versus the treated groups is performed using Student's t-test. The significance of changes from the mean value for vehicle-treated (control) animals in the following Tables is indicated as follows: *p<0.05, **p<0.01, ***p<0.005,ns/not significant.

[2] = target: T1, HSF-PLA2 (extracellular PLA2 obtained from human synovial fluid) (Homo sapiens, UniProt P14555); test: Assay for Inhibition of HSF-PLA2 In Vitro; format: biochemical; details: for IC50: given as 50 % inhibition at the given concentration, 14C-oleate-labelled E. coli substrate, pH 7.3, 37° C., 30 minutes, read-out: % Inhib of HSF-PLA2: 50 (concentration) = IC50 (μM concentration that produces 50% inhibition of PLA2 activity)
T1 construct: extracellular enzyme obtained from human synovial fluid; from tissue; host or cells: pooled human synovial fluid (0.1% v/v in the assay)
T1 sequence (P14555 21-144): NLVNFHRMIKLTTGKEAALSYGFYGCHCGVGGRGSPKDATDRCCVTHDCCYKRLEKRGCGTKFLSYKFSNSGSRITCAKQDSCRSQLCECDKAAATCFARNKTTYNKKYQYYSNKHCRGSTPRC
Procedure: The PLA2 used in this test is the extracellular enzyme obtained from human synovial fluid (HSF-PLA2). The assay for HSF-PLA2 activity was a modification of the described method [Franson R., Dobrow R., Weiss, J., Elsbach P., and […]. Lipid Res., 19, 18-23 (1978)] which was conducted using [1-^14 C]-oleate-labelled E. coli substrate in excess at a final concentration of 20,000 dpm/ml. This was equivalent to 18.2 mM of cell membrane phospholipid phosphorus and 2×10^9 autoclaved E. coli/ml. The optimal conditions which were developed for the assay of HSF-PLA2 inhibitors are summarized as follows. […] The reaction was terminated by the addition of 2.5 ml of chloroform-methanol (1 to 1.5, v/v). The extraction of lipids from the stopped reaction mixture was conducted by the further additions of 0.5 ml of chloroform and 1 ml of water with mixing. […] The extracted lipid residue was redissolved in […] of a solution containing carrier oleic acid (0.2 mg/ml) of […]]). […] This TLC system rapidly (6 minutes) resolved the enzymatically released product, ^14 C-oleic acid, from the unreacted ^14 C-phospholipid substrate. The unsaturated lipids were located on the chromatogram by a brief exposure to iodine vapor. The oleic acid zone (Rf value 0.95) and phospholipid zone (origin) were cut out, chopped into small pieces, shaken with 2 ml of ethanol-water (80 to 20, v/v) and 15 ml of Aquasol and counted for radioactivity. A control incubation of substrate in the absence of HSF-PLA2 was performed in each experiment. The PLA2 activity of the human synovial fluid was corrected for this small control value. […] The specific activity of PLA2 in the pooled human synovial fluid under the optimal assay conditions was 49.2 nmoles [1-^14 C]-oleic acid released hour^-1 mg^-1. The IC50 (μM concentration of test compound that produces 50% inhibition of PLA2 activity) was determined for each test compound.

[3] = system: myeloperoxidase (MPO) activity, indicator of neutrophil infiltration; test: TPA mouse ear test, myeloperoxidase activity in ear punches; format: in vivo, male CD-1 mice; details: 0.3 mg topically
Procedure: (§1) For this test, 10 μl of 12-O-tetradecanoylphorbol-13-acetate (TPA), dissolved in a vehicle of pyridine: water: diethyl ether (20:5:75), was applied to the outside of the right ear of 3-4 week old male CD-1 mice (8 animals per group). The test compounds were dissolved in the same vehicle and 10 μl was applied to the inside of the same ear 30 minutes prior to the application of TPA. Ear punches (6 mm) were removed at 6 hours after TPA application, weighed and assayed for myeloperoxidase (MPO) activity as described in the following reference: P. P. Bradley, D. A. Priebat, R. D. Christensen and G. Rothstein, J. Invest. Dermatology 78, 206-209 (1982). The wet weight of the ear biopsy punches is a measure of the ear edema and the level of MPO activity in the ear punches is an indicator of neutrophil infiltration. The data are expressed as percent inhibition of drug-treatedanimals relative to the control group.

[4] = system: myeloperoxidase in colonic mucosa; test: Acetic Acid-Induced Colitis in Rats; format: in vivo, Male rats (Sprague-Dawley); details: 10 mg/kg orally
Description: The rat acetic acid-induced colitis bioassay has been described by J. E. Krawisz, et al. in Amer. J. Proc. Gastro. Col. Rec. Surg. 31:11-18 (1980), and by P. Sharon and W. F. Stenson in Gastroenterology 88, 55-63 (1985) and 86, 453-460 (1984). Acetic acid-induced colitis is characterized by the movement of inflammatory cells into the colon, ,with the number of such cells in the mucosa being measured by the activity of myeloperoxidase, a marker enzyme for these cells. Positive desirable activity is indicated by a reduction in the high levels of myeloperoxidase caused by acetic acid. Male rats (Sprague-Dawley), weighing 150 to 300 g, were pretreated twice daily for two days with either the vehicle (water or dimethylsulfoxide) or the test inhibitor compound suspended in water or dissolved in dimethylsulfoxide and orally administered. […] The colonic mucosa was surgically removed and homogenized in an aqueous buffer at pH 6 with a Tissumizer or similar device and myeloperoxidase was measured in the homogenate using o-phenylenediamine as a chromagen, as described by A. Voller, D. E. Bidwell and A. Bartlett in "The Enzyme Linked Immunosorbent Assay (ELISA)", Zoological Soc., London, 1979, pages 29-30. […]

[5] = system: TPA-induced mouse ear edema; test: TPA Induced Mouse Ear Edema Test (ear punch weight); format: in vivo, male CD-1 mice; details: Mus musculus; 0.3 mg topical, 30 minutes prior to TPA, ear punch weight at 6 hours; read-out: % Inhib of TPA Mouse Ear Edema (0.3 mg)
Procedure: as §1, with “The TPA-induced mouse ear edema test, a model of irritant-induced contact dermatitis is described in the following reference: J. M. Young, B. M. Wagner and […]. Invest. Dermatology 80, 48-52 (1983). For” for “For”, “[…].” for “D. A. Priebat, R. D.”, “drug-[…]” for “drug-treatedanimals”

[6] = system: carrageenan-induced paw edema; test: Rat Carrageenan Paw Edema; format: in vivo, Lewis rats; details: 30 mg/kg ip, measured at 2 hours after carrageenan injection
Procedure: Representative compounds of the invention were tested in the rat carrageenan-induced paw edema test to determine their ability to inhibit this acute inflammatory response. Test compounds were administered intraperitoneally or orally to groups of seven Lewis rats (~200 gm) 1 hr prior to carrageenan administration. The test compounds were dissolved in dimethyl sulfoxide for intraperitoneal administration and dissolved or suspended in Labrafil […] for oral administration. At 0 hour, 0.1 mL of 1% carrageenan dissolved in pyrogen free saline was injected subplantarly into the right hind paw to elicit the inflammatory response. The volume (in mL) of the right hind paw was measured by immersion of the paw to the level of the lateral malleolus in an aqueous plethysmometer immediately prior to the injection of carrageenan and then at 1, 2 and 4 hr after carrageenan injection. The paw edema was calculated by subtracting the zero time reading from the readings taken after injection. The percent change of the edema volume from the vehicle treated control was calculated to determine the activity of the test compound. Statistical analysis of the mean paw edema values of the control versus the treated groups was performed using Student's t-test.

IC50 [2] [µM]	SMILES	% Inhib of Croton Oil Mouse Ear Edema (1 mg) [1] [%]	% Inhib of myeloperoxidase in the TPA mouse ear test [3] [%]	inhibition in vivo at 0.3 mg [5] [%]	other results
–	CCCCCCCCCCCCCCCCCCOc1cc(OC(=O)C23CC4CC(CC(C4)C2)C3)cc(C(=O)O)c1 [Example 13, 3-(Octadecyloxy)-5-[(tricyclo[3.3.1./3,7/]dec-1-ylcarbonyl)oxy]benzoic acid]	81	–	–	inhibition at 5 µM ([2]; 5 μM, read-out: % Inhib of HSF-PLA2): 86%
1.4	CCCCCCCCCCCCCCCCCCOc1cc(OCCCOc2ccccc2)cc(C(=O)O)c1 [Example 17, 3-(Octadecyloxy)-5-(3-phenoxypropoxy)benzoic acid]	81	–	–	–
1.1	CCCCCCCCCCCCCCCCCCOc1cc(OCCCCCCc2cccc(O)c2O)cc(C(=O)O)c1 [Example 19, 3-[[6-(2,3-Dihydroxyphenyl)hexyl]oxy]-5-(octadecyloxy) benzoic acid]	76	94	55	inhibition of myeloperoxidase (acetic acid-induced colitis) [4]: 56±17%
–	CCCCCCCCCCCCCCCCCCOc1cc(OCCCOc2ccc(O)cc2)cc(C(=O)O)c1 [Example 31, 3-[3-(4-Hydroxyphenoxy)propoxy]-5-(octadecyloxy) benzoic acid]	84	70	58	inhibition of the edema (rat carrageenan paw edema) [6]: 55%; inhibition at 1 µM ([2]; 1 μM, read-out: % Inhib of HSF-PLA2): 37%
8.8	CCCCCCCCCCOc1cc(OCCCOc2ccc(O)cc2)cc(C(=O)O)c1 [Example 40, 3-(Decyloxy)-5-[3-(4-hydroxyphenoxy)propoxy]benzoic acid]	–	72	58	–
–	CCCCCCCCCCCCCCCCCCOc1cccc(C(=O)O)c1OCCCOc1ccc(O)cc1 [Example 58, 2-[3-(4-Hydroxyphenoxy)propoxy]-3-(octadecyloxy) benzoic acid]	–	62	48	inhibition at 10 µM ([2]; read-out: % Inhib of HSF-PLA2): 93%
–	CCCCCCCCCCCCCCOc1cc(OCCCCCCc2cccc(O)c2O)cc(C(=O)O)c1 [Example 63, 3-[[6-(2,3-dihydroxyphenyl)hexyl]oxy]-5-(tetradecyloxy)benzoic acid]	–	61	61	inhibition at 10 µM ([2]; read-out: % Inhib of HSF-PLA2): 88%
–	CCCCCCCCCCOc1cc(OCCCCCCc2cccc(O)c2O)cc(C(=O)O)c1 [Example 68, 3-(Decyloxy)-5-[[6-(2,3-dihydroxyphenyl)hexyl]oxy]benzoic acid]	–	89	58	inhibition at 20 µM ([2]; 20 μM, read-out: % Inhib of HSF-PLA2): 74%

SMILES	IC50 [2] [µM]	% Inhib of Croton Oil Mouse Ear Edema (1 mg) [1] [%]	% Inhib of myeloperoxidase in the TPA mouse ear test [3] [%]	inhibition in vivo at 0.3 mg [5] [%]	other results
CCCCCCCCCCCCCCCCCCOc1cc(OC(=O)C(c2ccccc2)c2ccccc2)cc(C(=O)O)c1 [Example 11, 3-(Octadecyloxy)-5-(2,2-diphenyl-1-oxoethoxy) benzoic acid]	0.3	71	–	–	–
